US20260262643A1, “HERBICIDAL BENZOXAZINES” (FMC CORPORATION, priority 2022, published 2026)

Legend:
ragweed [1] = test: Test C postemergence; assay type: in vivo, Ambrosia artemisiifolia; conditions: 10 days, 0 to 100 scale (0 no effect, 100 complete control)
Method in brief: (§1)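 Pre: seeds in loam/sand, directed soil spray. Post: 1–2 leaf plants, 2–10 cm. Cmpd in non-phytotoxic solvent + surfactant. Greenhouse 10 d; visual rating vs untreated, 0 = none, 100 = complete control.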

soybean [2] = test: Test C preemergence; assay type: in vivo, Glycine max
Method in brief: as §1

pigweed, palmer [3] = test: Test C preemergence; assay type: in vivo, Amaranthus palmeri
Method in brief: as §1

barnyardgrass [4] = test: Test C postemergence; assay type: in vivo, Echinochloa crusgalli; conditions: 10 days, 0 to 100 scale (0 no effect, 100 complete control)
Method in brief: as §1

ducksalad = test: Test D flooded paddy test; assay type: in vivo, Heteranthera limosa; conditions: 250 g ai/ha, applied to paddy water, visual rating after 13 to 14 days, scale 0 to 100 (0 no effect, 100 complete control)
Method in brief: (§2)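 Post-flood water application at the 2-leaf stage; 3 cm flood depth kept constant; visual control rating 0–100 after 13–14 days greenhouse growth.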

sedge, umbrella = test: Test D flooded paddy test; assay type: in vivo, Cyperus difformis; conditions: 250 g ai/ha, applied to paddy water, visual rating after 13 to 14 days, scale 0 to 100 (0 no effect, 100 complete control)
Method in brief: as §2

galium = test: Test C postemergence; assay type: in vivo, Galium aparine; conditions: 10 days, 0 to 100 scale (0 no effect, 100 complete control)
Method in brief: as §1

ryegrass, Italian [5] = test: Test C preemergence; assay type: in vivo, Lolium multiflorum
Method in brief: as §1

horseweed = test: Test C postemergence; assay type: in vivo, Erigeron canadensis; conditions: 10 days, 0 to 100 scale (0 no effect, 100 complete control)
Method in brief: as §1

oat, wild [6] = test: Test C preemergence; assay type: in vivo, Avena fatua
Method in brief: as §1

blackgrass [7] = test: Test C preemergence; assay type: in vivo, Alopecurus myosuroides
Method in brief: as §1

foxtail, giant [8] = test: Test C postemergence; assay type: in vivo, Setaria faberi; conditions: 10 days, 0 to 100 scale (0 no effect, 100 complete control)
Method in brief: as §1

wheat [9] = test: Test C postemergence; assay type: in vivo, Triticum aestivum; conditions: 10 days, 0 to 100 scale (0 no effect, 100 complete control)
Method in brief: as §1

ragweed [10] = test: Test C preemergence; assay type: in vivo, Ambrosia artemisiifolia
Method in brief: as §1

kochia [11] = test: Test C preemergence; assay type: in vivo, Bassia scoparia
Method in brief: as §1

barnyardgrass [12] = test: Test D flooded paddy test; assay type: in vivo, Echinochloa crus-galli; conditions: 250 g ai/ha, applied to paddy water, visual rating after 13 to 14 days, scale 0 to 100 (0 no effect, 100 complete control)
Method in brief: as §2

kochia [13] = test: Test C postemergence; assay type: in vivo, Bassia scoparia; conditions: 10 days, 0 to 100 scale (0 no effect, 100 complete control)
Method in brief: as §1

wheat [14] = test: Test C preemergence; assay type: in vivo, Triticum aestivum
Method in brief: as §1

foxtail, giant [15] = test: Test C preemergence; assay type: in vivo, Setaria faberi
Method in brief: as §1

pigweed, palmer [16] = test: Test C postemergence; assay type: in vivo, Amaranthus palmeri; conditions: 10 days, 0 to 100 scale (0 no effect, 100 complete control)
Method in brief: as §1

barnyardgrass [17] = test: Test C preemergence; assay type: in vivo, Echinochloa crusgalli
Method in brief: as §1

rice = test: Test D flooded paddy test; assay type: in vivo, Oryza sativa; conditions: 250 g ai/ha, applied to paddy water, visual rating after 13 to 14 days, scale 0 to 100 (0 no effect, 100 complete control)
Method in brief: as §2

oat, wild [18] = test: Test C postemergence; assay type: in vivo, Avena fatua; conditions: 10 days, 0 to 100 scale (0 no effect, 100 complete control)
Method in brief: as §1

corn [19] = test: Test C preemergence; assay type: in vivo, Zea mays
Method in brief: as §1

blackgrass [20] = test: Test C postemergence; assay type: in vivo, Alopecurus myosuroides; conditions: 10 days, 0 to 100 scale (0 no effect, 100 complete control)
Method in brief: as §1

corn [21] = test: Test C postemergence; assay type: in vivo, Zea mays; conditions: 10 days, 0 to 100 scale (0 no effect, 100 complete control)
Method in brief: as §1

soybean [22] = test: Test C postemergence; assay type: in vivo, Glycine max; conditions: 10 days, 0 to 100 scale (0 no effect, 100 complete control)
Method in brief: as §1

ryegrass, Italian [23] = test: Test C postemergence; assay type: in vivo, Lolium multiflorum; conditions: 10 days, 0 to 100 scale (0 no effect, 100 complete control)
Method in brief: as §1

[24] = 500 g ai/ha, preemergence, 0 to 100 scale (0 no effect, 100 complete control)
[25] = Preemergence, 125 g ai/ha, 0 to 100 scale, 0 no effect, 100 complete control

C[C@H]1CN(C(=O)c2cc(-n3cncn3)cc(C(F)(F)F)c2)c2cccc(Cl)c2O1 [Compound 335]
Plant response rating, Ragweed (ragweed [1]; 500 g ai/ha, postemergence): 20 | Plant response rating, Ragweed (ragweed [1]; Postemergence, 125 g ai/ha): 0 | Soybean plant response rating (soybean [2]; [24]): 30 | Plant response rating, Soybean (soybean [2]; [25]): 0 | Pigweed, Palmer plant response rating (pigweed, palmer [3]; [24]): 60 | Plant response rating, Pigweed, Palmer (pigweed, palmer [3]; [25]): 0 | Plant response rating, Barnyardgrass (barnyardgrass [4]; 500 g ai/ha, postemergence): 20 | Plant response rating, Barnyardgrass (barnyardgrass [4]; Postemergence, 125 g ai/ha): 10 | Plant response rating, Ducksalad (Flood) (ducksalad): 35 | Plant response rating, Sedge, Umbrella (Flood) (sedge, umbrella): 35 | Plant response rating, Galium (galium; 500 g ai/ha, postemergence): 50 | Plant response rating, Galium (galium; Postemergence, 125 g ai/ha): 50 | Ryegrass, Italian plant response rating (ryegrass, Italian [5]; [24]): 80 | Plant response rating, Ryegrass, Italian (ryegrass, Italian [5]; [25]): 30 | Plant response rating, Horseweed (horseweed; 500 g ai/ha, postemergence): 0 | Plant response rating, Horseweed (horseweed; Postemergence, 125 g ai/ha): 0 | Oat, Wild plant response rating (oat, wild [6]; [24]): 10 | Plant response rating, Oat, Wild (oat, wild [6]; [25]): 0 | Blackgrass plant response rating (blackgrass [7]; [24]): 80 | Plant response rating, Blackgrass (blackgrass [7]; [25]): 20 | Plant response rating, Foxtail, Giant (foxtail, giant [8]; 500 g ai/ha, postemergence): 50 | Plant response rating, Foxtail, Giant (foxtail, giant [8]; Postemergence, 125 g ai/ha): 20 | Plant response rating, Wheat (wheat [9]; 500 g ai/ha, postemergence): 20 | Plant response rating, Wheat (wheat [9]; Postemergence, 125 g ai/ha): 10 | Ragweed plant response rating (ragweed [10]; [24]): 0 | Plant response rating, Ragweed (ragweed [10]; [25]): 0 | Kochia plant response rating (kochia [11]; [24]): 20 | Plant response rating, Kochia (kochia [11]; [25]): 0 | Plant response rating, Barnyardgrass (Flood) (barnyardgrass [12]): 0 | Plant response rating, Kochia (kochia [13]; 500 g ai/ha, postemergence): 30 | Plant response rating, Kochia (kochia [13]; Postemergence, 125 g ai/ha): 10 | Wheat plant response rating (wheat [14]; [24]): 0 | Plant response rating, Wheat (wheat [14]; [25]): 0 | Foxtail, Giant plant response rating (foxtail, giant [15]; [24]): 90 | Plant response rating, Foxtail, Giant (foxtail, giant [15]; [25]): 30 | Plant response rating, Pigweed, Palmer (pigweed, palmer [16]; 500 g ai/ha, postemergence): 60 | Plant response rating, Pigweed, Palmer (pigweed, palmer [16]; Postemergence, 125 g ai/ha): 10 | Barnyardgrass plant response rating (barnyardgrass [17]; [24]): 60 | Plant response rating, Barnyardgrass (barnyardgrass [17]; [25]): 20 | Plant response rating, Rice (Flood) (rice): 0 | Plant response rating, Oat, Wild (oat, wild [18]; 500 g ai/ha, postemergence): 0 | Plant response rating, Oat, Wild (oat, wild [18]; Postemergence, 125 g ai/ha): 0 | Corn plant response rating (corn [19]; [24]): 10 | Plant response rating, Corn (corn [19]; [25]): 0 | Plant response rating, Blackgrass (blackgrass [20]; 500 g ai/ha, postemergence): 20 | Plant response rating, Blackgrass (blackgrass [20]; Postemergence, 125 g ai/ha): 0 | Plant response rating, Corn (corn [21]; 500 g ai/ha, postemergence): 10 | Plant response rating, Corn (corn [21]; Postemergence, 125 g ai/ha): 10 | Plant response rating, Soybean (soybean [22]; 500 g ai/ha, postemergence): 100 | Plant response rating, Soybean (soybean [22]; Postemergence, 125 g ai/ha): 90 | Plant response rating, Ryegrass, Italian (ryegrass, Italian [23]; 500 g ai/ha, postemergence): 30 | Plant response rating, Ryegrass, Italian (ryegrass, Italian [23]; Postemergence, 125 g ai/ha): 10
